Data published in patent publication US9926295B2, “Potent and selective inhibitors of hepatitis C virus” (Cocrystal Pharma, Inc., priority 2014, dated 2018).

Experiments:
Assay type in all cases: cell-based
[1] = Cellular toxicity assay in CEM cells; conditions: human, CEM (human lymphoblastoid) cells, read-out: Cytotoxicity (IC50 μM) CEM
Description: (§1) The toxicity of the compounds was assessed in Vero, human PBM, CEM (human lymphoblastoid), MT-2, and HepG2 cells, as described previously (see Schinazi R. F., Sommadossi J.-P., Saalmann V., Cannon D. L., Xie M.-Y., Hart G. C., Smith G. A. & Hahn E. F. Antimicrob. Agents Chemother. 1990, 34, 1061-67). Cycloheximide was included as positive cytotoxic control, and untreated cells exposed to solvent were included as negative controls. The cytotoxicity IC50 was obtained from the concentration-response curve using the median effective method described previously (see Chou T.-C. & Talalay P. Adv. Enzyme Regul. 1984, 22, 27-55; Belen'kii M. S. & Schinazi R. F. Antiviral Res. 1994, 25, 1-11).

[2] = system: HCV Replicon RNA (HCV 1b) in Huh 7 Clone B cells; assay: HCV Replicon Assay; conditions: Hepatitis C virus, 120 h, five days incubation
Description: Huh 7 Clone B cells containing HCV Replicon RNA would be seeded in a 96-well plate at 5000 cells/well, and the compounds tested at 10 μM in triplicate immediately after seeding. Following five days incubation (37° C., 5% CO2), total cellular RNA was isolated by using versaGene RNA purification kit from Gentra. Replicon RNA and an internal control (TaqMan rRNA control reagents, Applied Biosystems) were amplified in a single step multiplex Real Time RT-PCR Assay. The antiviral effectiveness of the compounds was calculated by subtracting the threshold RT-PCR cycle of the test compound from the threshold RT-PCR cycle of the no-drug control (ΔCt HCV). A ΔCt of 3.3 equals a 1-log reduction (equal to 90% less starting material) in Replicon RNA levels. The cytotoxicity of the compounds was also calculated by using the ΔCt rRNA values. 2′-C-Me-C was used as the positive control. To determine EC90 and IC50 values^2, ΔCt: values were first converted into fraction of starting material^3 and then were used to calculate the % inhibition.
• 1. Stuyver L et al., Ribonucleoside analogue that blocks replication or bovine viral diarrhea and hepatitis C viruses in culture. Antimicrob. Agents Chemother. 2003, 47, 244-254. • 2. Reed I J & Muench H, A simple method or estimating fifty percent endpoints. Am. J. Hyg. 27: 497, 1938. • 3. Applied Biosystems Handbook Median Effective concentrations (EC50) ranges against HCV 1b are as follow: A=[…] B=100-999 nM C=1-99 nM D=<1 nM

[3] = Cellular toxicity assay in Vero cells; conditions: African green monkey, read-out: Cytotoxicity (IC50 μM) Vero
Description: as §1

[4] = Cellular toxicity assay in human PBM cells; conditions: read-out: Cytotoxicity (IC50 μM) PBM
Description: as §1

Row | Structure (SMILES) | IC50 [1] [µM] | EC50 ([2]; pM) [pM] | EC90 ([2]; pM) [pM] | IC50 [3] [µM] | IC50 [4] [µM] | EC50 ([2]; values in nM) [pM] | EC90 ([2]; values in nM) [pM]
1 | COC(=O)N[C@H](C(=O)N1CCCC1c1nc(Cl)c(-c2ccc(-c3ccc(-c4cnc([C@@H]5C[C@H](SC)CN5C(=O)[C@@H](NC(=O)OC)C(C)C)[nH]4)cc3)cc2)[nH]1)C(C)C (stereo partly drawn) [Compound 42] | 3.1 | 13.9 | 26.3 | 34.5 | 60 |  | 
2 | COC(=O)N[C@H](C(=O)N1CCCC1c1nc(Cl)c(-c2ccc(-c3ccc(-c4cnc([C@@H]5C[C@H]([S+](C)[O-])CN5C(=O)[C@@H](NC(=O)OC)c5ccccc5)[nH]4)cc3)cc2)[nH]1)c1ccccc1 (stereo partly drawn) [Compound 44] | 3.6 |  |  | > 100 | 89.7 | 200 | 1100
3 | COC(=O)N[C@H](C(=O)N1CCCC1c1ncc(-c2ccc(-c3ccc(-c4[nH]c([C@@H]5C[C@H](SC)CN5C(=O)[C@@H](NC(=O)OC)C(C)C)nc4Cl)cc3)cc2)[nH]1)C(C)C (stereo partly drawn) [Compound 45] | 5.2 | 16.3 | 31.6 | 14.4 | 27.2 |  | 
4 | COC(=O)N[C@H](C(=O)N1CCCC1c1ncc(-c2ccc(-c3ccc(-c4[nH]c([C@@H]5C[C@H]([S+](C)[O-])CN5C(=O)[C@@H](NC(=O)OC)C(C)C)nc4Cl)cc3)cc2)[nH]1)C(C)C (stereo partly drawn) [Compound 46] | 3.7 |  |  | 45.8 | 13.6 | 60 | 300
5 | COC(=O)N[C@H](C(=O)N1CCCC1c1ncc(-c2ccc(-c3ccc(-c4[nH]c([C@@H]5C[C@H](SC)CN5C(=O)[C@@H](NC(=O)OC)c5ccccc5)nc4Cl)cc3)cc2)[nH]1)c1ccccc1 (stereo partly drawn) [Compound 47] | > 100 | 4 | 23.1 | > 100 | > 100 |  | 
6 | COC(=O)N[C@H](C(=O)N1CCCC1c1ncc(-c2ccc(-c3ccc(-c4[nH]c([C@@H]5C[C@H]([S+](C)[O-])CN5C(=O)[C@@H](NC(=O)OC)c5ccccc5)nc4Cl)cc3)cc2)[nH]1)c1ccccc1 (stereo partly drawn) [Compound 48] | 1.8 |  |  | > 100 | 67.6 | 70 | 500
7 | COC(=O)N[C@H](C(=O)N1CCCC1c1nc(Cl)c(-c2ccc(-c3ccc(-c4[nH]c([C@@H]5C[C@H](SC)CN5C(=O)[C@@H](NC(=O)OC)C(C)C)nc4Cl)cc3)cc2)[nH]1)C(C)C (stereo partly drawn) [Compound 49] | 2.5 | 3.4 | 69.9 | > 100 | 24.3 |  | 
8 | COC(=O)N[C@H](C(=O)N1CCCC1c1nc(Cl)c(-c2ccc(-c3ccc(-c4[nH]c([C@@H]5C[C@H](SC)CN5C(=O)[C@@H](NC(=O)OC)c5ccccc5)nc4Cl)cc3)cc2)[nH]1)c1ccccc1 (stereo partly drawn) [Compound 51] | > 100 | 7.7 | 19.1 | > 100 | > 100 |  | 
9 | COC(=O)N[C@H](C(=O)N1CCCC1c1nc(Cl)c(-c2ccc(-c3ccc(-c4[nH]c([C@@H]5C[C@H]([S+](C)[O-])CN5C(=O)[C@@H](NC(=O)OC)c5ccccc5)nc4Cl)cc3)cc2)[nH]1)c1ccccc1 (stereo partly drawn) [Compound 52] | 7.1 |  |  | > 100 | 83.9 | 60 | 200
